# Reference: patent US10000486B2 (priority 2012, dated 2018)
# Where two headings read alike, the source gives them in different places.
# What was measured:
# Sabiá pseudotyped virus = assay: organism not typed; format: cell-based; conditions: read-out: Activity (EC50 in μM vs. pseudotyped virus) Sabiá
# VSVg pseudotyped virus = assay: organism not typed; format: cell-based
# [1] = system: Machupo pseudotyped virus; assay: organism not typed; format: cell-based
# [2] = system: Lassa GP-pseudotyped-virus; assay: microbe, parasite or virus in culture; format: cell-based, Lassa fever virus; conditions: Human immunodeficiency virus 1, read-out: Activity (EC50 in μM vs. pseudotyped virus) Lassa
# Junín pseudotyped virus = assay: organism not typed; format: cell-based; conditions: read-out: Activity (EC50 in μM vs. pseudotyped virus) Junín
# [3] = read-out: Activity (EC50 in μM vs. pseudotyped virus) VSVg
# [4] = read-out: Activity (EC50 in μM vs. pseudotyped virus) Machupo
SMILES,EC50 (Sabiá pseudotyped virus),EC50 (VSVg pseudotyped virus; [3]),"EC50 [1, 4]",EC50 [2],EC50 (Junín pseudotyped virus),"EC50 (VSVg pseudotyped virus; read-out: EC50 (Note 2, VSVg))","EC50 ([1]; read-out: EC50 (Note 1, Machupo))"
"CCOc1ccc(-n2cnc3cc(/C=C\c4ccc(C(C)(C)C)cc4)ccc32)cc1 [Compound 5, 5-[(Z)-2-(4-tert-butylphenyl)vinyl]-1-(4-ethoxyphenyl)benzimidazole]",< 1 µM,10 to 50 µM,< 1 µM,< 1 µM,< 1 µM,,
"CC(C)Oc1ccc(-n2cnc3cc(/C=C\c4ccc(C(C)(C)C)cc4)ccc32)cc1 [Compound 7, 5-[(Z)-2-(4-tert-butylphenyl)vinyl]-1-(4-isopropoxyphenyl)-benzimidazole]",< 1 µM,10 to 50 µM,< 1 µM,< 1 µM,< 1 µM,,
"CCc1ccc(/C=C\c2ccc3c(c2)ncn3-c2ccc(OC(C)C)cc2)cc1 [Compound 9, 5-[(Z)-2-(4-ethylphenyl)vinyl]-1-(4-isopropoxyphenyl)-benzimidazole]",< 1 µM,10 to 50 µM,< 1 µM,< 1 µM,< 1 µM,,
"CCOc1ccc(-n2cnc3cc(/C=C\c4ccc(OC(F)(F)F)cc4)ccc32)cc1 [Compound 11, 1-(4-ethoxyphenyl)-5-[(Z)-2-[4-(trifluoromethoxy)phenyl]vinyl]benzimidazole]",,10 to 50 µM,< 1 µM,< 1 µM,< 1 µM,,
"CCOc1ccc(-n2cnc3cc(/C=C/c4ccc(C(F)(F)F)cc4)ccc32)cc1 [Compound 12, 1-(4-ethoxyphenyl)-5-[(E)-2-[4-(trifluoromethyl)phenyl]vinyl]benzimidazole]",,,,10 to 50 µM,10 to 50 µM,196 µM,51 µM
CCOc1ccc(-n2cnc3cc(/C=C\c4ccc(C(F)(F)F)cc4)ccc32)cc1 [Compound 13],,10 to 50 µM,< 1 µM,< 1 µM,< 1 µM,,
"CCc1ccc(/C=C\c2ccc3c(c2)ncn3-c2ccc(OC(C)(C)C)cc2)cc1 [Compound 15, 1-(4-tert-butoxyphenyl)-5-[(Z)-2-(4-ethylphenyl)-vinyl]benzimidazole]",< 1 µM,10 to 50 µM,,< 1 µM,,,
"CC(C)(C)Oc1ccc(-n2cnc3cc(/C=C\c4ccc(C(C)(C)C)cc4)ccc32)cc1 [Compound 17, 1-(4-tert-butoxyphenyl)-5-[(Z)-2-(4-tert-butylphenyl)vinyl]benzimidazole]",< 1 µM,10 to 50 µM,,< 1 µM,,,
"CCOc1ccc(-n2cnc3cc(/C=C\c4ccc(CC)cc4)cnc32)cc1 [Compound 22, 3-(4-ethoxyphenyl)-6-[(Z)-2-(4-ethylphenyl)vinyl]imidazo[4,5-b]pyridine]",,10 to 50 µM,< 1 µM,< 1 µM,< 1 µM,,
"CCOc1ccc(-n2cnc3cc(C#Cc4ccc(CC)cc4)cnc32)cc1 [Compound 26, 3-(4-ethoxyphenyl)-6-[2-(4-ethylphenyl)-ethynyl]imidazo[4,5-b]pyridine]",,10 to 50 µM,10 to 50 µM,1 to 10 µM,1 to 10 µM,,
"CCOc1ccc(-n2cnc3cc(CCc4ccc(CC)cc4)cnc32)cc1 [Compound 28, 3-(4-ethoxyphenyl)-6-[2-(4-ethylphenyl)-ethyl]imidazo[4,5-b]pyridine]",,> 50 µM,< 1 µM,< 1 µM,< 1 µM,,
"CCOc1ccc(-n2cnc3cc(OCc4ccc(CC)cc4)ccc32)cc1 [Compound 29, 1-(4-ethoxyphenyl)-5-[(4-ethylphenyl)-methoxy]benzimidazole]",,10 to 50 µM,< 1 µM,< 1 µM,< 1 µM,,
"COc1ccc(-n2cnc3cc(OCc4ccc(C(C)C)cc4)ccc32)cc1 [Compound 30, 5-[(4-isopropylphenyl)methoxy]-1-(4-methoxyphenyl)benzimidazole]",,10 to 50 µM,< 1 µM,< 1 µM,< 1 µM,,
"CCOc1ccc(-n2cnc3cc(CNc4ccc(CC)cc4)ccc32)cc1 [Compound 34, N-[[1-(4-ethoxyphenyl)benzimidazol-5-yl]methyl]-4-ethyl-aniline]",,10 to 50 µM,< 1 µM,< 1 µM,< 1 µM,,
"CC(C)Oc1ccc(-n2cnc3cc(C4CC4c4ccc(C(C)(C)C)cc4)ccc32)cc1 (centres unmarked) [Compound 36, 5-[2-(4-tert-butylphenyl)cyclopropyl]-1-(4-isopropoxyphenyl)-benzimidazole]",,10 to 50 µM,< 1 µM,< 1 µM,< 1 µM,,
"COC(=O)c1ccc(/C=C\c2ccc3c(c2)ncn3-c2ccc(OC(C)C)cc2)cc1 [Compound 37, methyl 4-[(Z)-2-[1-(4-isopropoxyphenyl)-benzimidazol-5-yl]vinyl]benzoate]",,10 to 50 µM,< 1 µM,< 1 µM,< 1 µM,,

SMILES,EC50 (Sabiá pseudotyped virus),EC50 (VSVg pseudotyped virus; [3]),"EC50 [1, 4]",EC50 [2],EC50 (Junín pseudotyped virus),"EC50 (VSVg pseudotyped virus; read-out: EC50 (Note 2, VSVg))","EC50 ([1]; read-out: EC50 (Note 1, Machupo))"
"CC(C)Oc1ccc(-n2cnc3cc(/C=C\c4ccc(C(C)(C)O)cc4)ccc32)cc1 [Compound 38, 2-[4-[(Z)-2-[1-(4-isopropoxyphenyl)benzimidazol-5-yl]vinyl]phenyl]-propan-2-ol]",,1 to 10 µM,< 1 µM,< 1 µM,< 1 µM,,
"CC(C)Oc1ccc(-n2cnc3cc(/C=C\c4ccc(C(C)(C)F)cc4)ccc32)cc1 [Compound 39, 5-[(Z)-2-[4-(1-fluoro-1-methyl-ethyl)phenyl]vinyl]-1-(4-isopropoxy-phenyl)benzimidazole]",,1 to 10 µM,< 1 µM,< 1 µM,< 1 µM,,
"C=C(C)c1ccc(/C=C\c2ccc3c(c2)ncn3-c2ccc(OC(C)C)cc2)cc1 [Compound 40, 5-[(Z)-2-(4-isopropenylphenyl)-vinyl]-1-(4-isopropoxyphenyl)-benzimidazole]",,10 to 50 µM,< 1 µM,< 1 µM,< 1 µM,,
"CC(C)Oc1ccc(-n2cnc3cc(/C=C\c4ccc(C5(O)CC5)cc4)ccc32)cc1 [Compound 48, 1-[4-[(Z)-2-[1-(4-isopropoxyphenyl)benzimidazol-5-yl]vinyl]phenyl]cyclopropanol]",,10 to 50 µM,< 1 µM,< 1 µM,< 1 µM,,
"CCC(C)(O)c1ccc(/C=C\c2ccc3c(c2)ncn3-c2ccc(OC(C)C)cc2)cc1 (centres unmarked) [Compound 50, 2-[4-[(Z)-2-[1-(4-isopropoxyphenyl)benzimidazol-5-yl]vinyl]phenyl]butan-2-ol]",,1 to 10 µM,< 1 µM,< 1 µM,< 1 µM,,
"CC(C)Oc1ccc(-n2cnc3cc(/C=C\c4ccc(C(C)O)cc4)ccc32)cc1 (centres unmarked) [Compound 51, 1-[4-[(Z)-2-[1-(4-isopropoxyphenyl)benzimidazol-5-yl]vinyl]phenyl]ethanol]",,1 to 10 µM,< 1 µM,< 1 µM,< 1 µM,,
"CC(C)Oc1ccc(-n2cnc3cc(/C=C\c4ccc(C5(O)CCC5)cc4)ccc32)cc1 [Compound 52, 1-[4-[(Z)-2-[1-(4-isopropoxyphenyl)benzimidazol-5-yl]vinyl]phenyl]cyclobutanol]",,1 to 10 µM,< 1 µM,< 1 µM,< 1 µM,,
"CC(C)Oc1ccc(-n2cnc3cc(/C=C\c4ccc(C5(O)COC5)cc4)ccc32)cc1 [Compound 53, 3-[4-[(Z)-2-[1-(4-isopropoxyphenyl)benzimidazol-5-yl]vinyl]phenyl]oxetan-3-ol]",,1 to 10 µM,< 1 µM,< 1 µM,< 1 µM,,
"CC(C)Oc1ccc(-n2cnc3cc(/C=C\c4ccc(C5(N)CC5)cc4)ccc32)cc1 [Compound 54, 1-[4-[(Z)-2-[1-(4-isopropoxyphenyl)benzimidazol-5-yl]vinyl]phenyl]cyclopropanamine]",,10 to 50 µM,< 1 µM,< 1 µM,< 1 µM,,
"CC(C)Oc1ccc(-n2cnc3cc(/C=C\c4ccc(C5(O)CNC5)cc4)ccc32)cc1 [Compound 58, 3-[4-[(Z)-2-[1-(4-isopropoxyphenyl)benzimidazol-5-yl]vinyl]phenyl]azetidin-3-ol]",,10 to 50 µM,< 1 µM,1 to 10 µM,< 1 µM,,
"CC(C)Oc1ccc(-n2cnc3cc(/C=C\c4ccc(C5(O)CCOCC5)cc4)ccc32)cc1 [Compound 59, 4-[4-[(Z)-2-[1-(4-isopropoxyphenyl)benzimidazol-5-yl]vinyl]phenyl]tetrahydropyran-4-ol]",,1 to 10 µM,< 1 µM,< 1 µM,< 1 µM,,
"CC(C)Oc1ccc(-n2cnc3cc(/C=C\c4ccc(C(C)(C)N)cc4)ccc32)cc1 [Compound 60, 2-[4-[(Z)-2-[1-(4-isopropoxyphenyl)benzimidazol-5-yl]vinyl]phenyl]propan-2-amine]",,> 50 µM,< 1 µM,< 1 µM,< 1 µM,,
"CCOc1ccc(-c2c[nH]c3cc(NCc4ccc(CC)cc4)ccc23)cc1 [Compound 64, 3-(4-ethoxyphenyl)-N-[(4-ethylphenyl)-methyl]-1H-indol-6-amine]",,10 to 50 µM,< 1 µM,< 1 µM,< 1 µM,,
"CCOc1ccc(-c2cnc3cc(NCc4ccc(CC)cc4)ccn23)cc1 [Compound 65, 3-(4-ethoxyphenyl)-N-[(4-ethylphenyl)-methyl]imidazo[1,2-a]pyridin-7-amine]",,1 to 10 µM,< 1 µM,< 1 µM,< 1 µM,,
"CCOc1ccc(-n2c[n+]([O-])c3cc(NCc4ccc(CC)cc4)ccc32)cc1 [Compound 67, 1-(4-ethoxyphenyl)-N-[(4-ethylphenyl)-methyl]-3-oxido-benzimidazol-3-ium-5-amine]",,10 to 50 µM,< 1 µM,< 1 µM,< 1 µM,,
